Reference: US20190105367A1, “ANTIMICROBIAL 4-OXOQUINOLIZINES” (Emergent Product Development Gaithersburg Inc., priority 2011, published 2019)
Marks after values point to notes of the source that are not given here.

How the values were obtained:
[1] = tested on: strains of A. baumannii and one strain of Acinetobacter sp.; assay: MIC with sub-inhibitory concentrations (0.25x MIC) of polymyxin B, panel of Acinetobacter strains (Example 4); assay type: cell-based
A. baumannii ATCC 19606 [2] = assay: MIC without and with sub-inhibitory polymyxin B (Example 4); assay type: cell-based, Acinetobacter baumannii; settings: A. baumannii ATCC 19606; for MIC: 2nd experiment
A. baumannii ATCC 19606 [3] = assay: Preliminary MBC without and with sub-inhibitory polymyxin B (Example 4); assay type: cell-based, Acinetobacter baumannii; settings: for MBC: 2nd experiment
A. baumannii J2 [4] = assay: MIC without and with sub-inhibitory polymyxin B (Example 4); assay type: cell-based, Acinetobacter baumannii; settings: A. baumannii J2
A. baumannii J2 [5] = assay: Preliminary MBC without and with sub-inhibitory polymyxin B (Example 4); assay type: cell-based, Acinetobacter baumannii; settings: A. baumannii J2, preliminary MBC; for MBC: 2nd experiment
[6] = tested on: Acinetobacter sp. (H064200250); assay: MIC without and with sub-inhibitory polymyxin B (Example 4); assay type: cell-based; settings: for MIC: Acinetobacter spp. H064200250 (OXA51), 2nd experiment
[7] = tested on: Acinetobacter sp. (H064200250); assay: Preliminary MBC without and with sub-inhibitory polymyxin B (Example 4); assay type: cell-based; settings: preliminary MBC; for MBC: Acinetobacter spp. H064200250 (OXA51), 2nd experiment
Protocol: (§1) The plates were incubated for 18-20 hours at 37° C. The MBC was read as the lowest concentration at which colony growth was ca. 90% less than the positive control (i.e. usually where single colonies or no colonies were observed).

A. baumannii A329 = assay: as above; assay type: cell-based, Acinetobacter baumannii; settings: for MBC: 2nd experiment
A. baumannii A387 = assay: MIC without and with sub-inhibitory polymyxin B (Example 4); assay type: cell-based, Acinetobacter baumannii; settings: A. baumannii A387; for MIC: 2nd experiment
A. baumannii A390 [8] = assay: as above; assay type: cell-based, Acinetobacter baumannii; settings: A. baumannii A390; for MIC: 2nd experiment
A. baumannii A14 [9] = assay: Preliminary MBC without and with sub-inhibitory polymyxin B (Example 4); assay type: cell-based, Acinetobacter baumannii; settings: 2nd experiment
Protocol: as §1

A. baumannii A390 [10] = assay: as above; assay type: cell-based, Acinetobacter baumannii; settings: for MBC: 2nd experiment
Protocol: as §1

A. baumannii A473 [11] = assay: as above; assay type: cell-based, Acinetobacter baumannii; settings: for MBC: 2nd experiment
Protocol: as §1

A. baumannii NCTC 13301 [12] = assay: as above; assay type: cell-based, Acinetobacter baumannii; settings: A. baumannii NCTC 13301, preliminary MBC; for MBC: 2nd experiment
Protocol: as §1

A. baumannii A472 = assay: as above; assay type: cell-based, Acinetobacter baumannii; settings: A. baumannii A472, preliminary MBC; for MBC: 2nd experiment
A. baumannii A473 [13] = assay: MIC without and with sub-inhibitory polymyxin B (Example 4); assay type: cell-based, Acinetobacter baumannii; settings: A. baumannii A473; for MIC: 2nd experiment
A. baumannii A489 [14] = assay: as above; assay type: cell-based, Acinetobacter baumannii; settings: A. baumannii A489; for MIC: 2nd experiment
A. baumannii A489 [15] = assay: Preliminary MBC without and with sub-inhibitory polymyxin B (Example 4); assay type: cell-based, Acinetobacter baumannii; settings: A. baumannii A489, preliminary MBC; for MBC: 2nd experiment
A. baumannii NCTC 13301 [16] = assay: MIC without and with sub-inhibitory polymyxin B (Example 4); assay type: cell-based, Acinetobacter baumannii; settings: A. baumannii NCTC 13301; +[…] polymyxin B; 1st experiment
A. baumannii NCTC 13301 [17] = assay: as above; assay type: cell-based, Acinetobacter baumannii; settings: A. baumannii NCTC 13301; +[…] PB; 2nd experiment
A. baumannii A14 [18] = assay: as above; assay type: cell-based, Acinetobacter baumannii; settings: 1st experiment
A. baumannii A14 [19] = assay: as above; assay type: cell-based, Acinetobacter baumannii; settings: A. baumannii A14, 2nd experiment
A. baumannii A14 [20] = assay: Preliminary MBC without and with sub-inhibitory polymyxin B (Example 4); assay type: cell-based, Acinetobacter baumannii; settings: A. baumannii A14, preliminary MBC, 1st experiment
[21] = +0.06 μg/ml polymyxin B, 1st experiment
[22] = without polymyxin B, 1st experiment
[23] = +[…] polymyxin B, 1st experiment
[24] = Acinetobacter spp. H064200250, +[…] polymyxin B, 1st experiment
[25] = Acinetobacter spp. H064200250, without polymyxin B, 1st experiment

Substance: Imipenem/cilastatin
- MIC range with PB (0.25x MIC) Oct. 1, 2008 n = 8 ([1]; 1st experiment, […] polymyxin B, ATCC 19606, A329, A390 and A473 not taken): <0.125 to 16 µg/mL
- MIC range with PB (0.25x MIC) Oct. 14, 2008 n = 11 ([1]; 2nd experiment, 0.06 μg/ml polymyxin B, all strains except the ATCC strain): ≤0.125 to 128 µg/mL
- MIC (A. baumannii ATCC 19606 [2]; +0.06 μg/ml PB): 1 µg/mL
- MIC +0.06 μg/ml PB (A. baumannii ATCC 19606 [2]; [21]): 1 µg/mL
- MIC (A. baumannii ATCC 19606 [2]; without PB): 1 µg/mL
- MIC (A. baumannii ATCC 19606 [2]; without PB, value in parentheses marked *, mark not explained): 4 µg/mL
- MIC without PB (A. baumannii ATCC 19606 [2]; [22]): 2 µg/mL
- MBC (A. baumannii ATCC 19606 [3]; A. baumannii ATCC 19606, +0.06 μg/ml PB): 1 µg/mL
- MBC +0.06 μg/ml PB (A. baumannii ATCC 19606 [3]; A. baumannii ATCC 19606, +0.06 μg/ml polymyxin B, 1st experiment): 2 µg/mL
- MBC (A. baumannii ATCC 19606 [3]; A. baumannii ATCC 19606, without PB): 4 µg/mL
- MBC without PB (A. baumannii ATCC 19606 [3]; A. baumannii ATCC 19606, without polymyxin B, 1st experiment): 2 µg/mL
- MIC (A. baumannii J2 [4]; +[…] PB, 2nd experiment): ≤0.125 µg/mL
- MIC +[…] PB (A. baumannii J2 [4]; [23]): ≤0.125 µg/mL
- MIC (A. baumannii J2 [4]; without PB, 2nd experiment): 8 µg/mL
- MIC read with alamar blue (A. baumannii J2 [4]; without PB, value in parentheses, 2nd experiment): 4 µg/mL
- MIC without PB (A. baumannii J2 [4]; [22]): 4 µg/mL
- MBC (A. baumannii J2 [5]; +[…] PB): ≤0.125 µg/mL
- MBC +[…] PB (A. baumannii J2 [5]; [23]): ≤0.125 µg/mL
- MBC (A. baumannii J2 [5]; without PB): 8 µg/mL
- MBC without PB (A. baumannii J2 [5]; [22]): 4 µg/mL
- MIC ([6]; +[…] PB): 0.5 µg/mL
- MIC ([6]; without PB): 8 µg/mL
- MIC +[…] PB [6, 24]: 0.5 µg/mL
- MIC without PB [6, 25]: 16 µg/mL
- MBC ([7]; +[…] PB): 0.5 µg/mL
- MBC ([7]; without PB): 8 µg/mL
- MBC +[…] PB [7, 24]: 2 (0.5)* μg/ml
- MBC without PB [7, 25]: 16 µg/mL
- MBC (A. baumannii A329; A. baumannii A329, +0.06 μg/ml PB): 128 µg/mL
- MBC (A. baumannii A329; A. baumannii A329, without PB): >128 µg/mL
- MBC without PB (A. baumannii A329; A. baumannii A329, without polymyxin B, 1st experiment): 128 µg/mL
- MIC (A. baumannii A387; +0.06 μg/ml PB): 8 µg/mL
- MIC +0.06 μg/ml PB (A. baumannii A387; [21]): 8 µg/mL
- MIC (A. baumannii A387; without PB): 16 µg/mL
- MIC without PB (A. baumannii A387; [22]): 16 µg/mL
- MIC (A. baumannii A390 [8]; +0.06 μg/ml PB): 4 µg/mL
- MIC (A. baumannii A390 [8]; without PB): 16 µg/mL
- MIC without PB (A. baumannii A390 [8]; [22]): 16 µg/mL
- MBC (A. baumannii A14 [9]; A. baumannii A14, +0.06 μg/ml PB): 0.5 µg/mL
- MBC (A. baumannii A14 [9]; A. baumannii A14, without PB): 1 µg/mL
- MBC (A. baumannii A390 [10]; A. baumannii A390, +0.06 μg/ml PB): 4 µg/mL
- MBC (A. baumannii A390 [10]; A. baumannii A390, without PB): 16 µg/mL
- MBC without PB (A. baumannii A390 [10]; A. baumannii A390, without polymyxin B, 1st experiment): 16 µg/mL
- MBC (A. baumannii A473 [11]; A. baumannii A473, +0.06 μg/ml PB): 4 µg/mL
- MBC (A. baumannii A473 [11]; A. baumannii A473, without PB): 32 µg/mL
- MBC without PB (A. baumannii A473 [11]; A. baumannii A473, without polymyxin B, 1st experiment): 32 µg/mL
- MBC (A. baumannii NCTC 13301 [12]; +[…] PB): 0.5 µg/mL
- MBC +[…] PB (A. baumannii NCTC 13301 [12]; [23]): 16 µg/mL
- MBC (A. baumannii NCTC 13301 [12]; without PB): 128 µg/mL
- MBC without PB (A. baumannii NCTC 13301 [12]; [22]): 128 µg/mL
- MBC (A. baumannii A472; +[…] PB): 0.25 µg/mL
- MBC +[…] PB (A. baumannii A472; [23]): 0.25 µg/mL
- MBC (A. baumannii A472; without PB): 8 µg/mL
- MBC without PB (A. baumannii A472; [22]): 16 µg/mL
- MIC (A. baumannii A473 [13]; +0.06 μg/ml PB): 4 µg/mL
- MIC (A. baumannii A473 [13]; without PB): 32 µg/mL
- MIC without PB (A. baumannii A473 [13]; [22]): 32 µg/mL
- MIC (A. baumannii A489 [14]; +[…] PB): 0.25 µg/mL
- MIC +[…] PB (A. baumannii A489 [14]; [23]): 2 µg/mL
- MIC (A. baumannii A489 [14]; without PB): 64 µg/mL
- MBC (A. baumannii A489 [15]; +[…] PB): 0.25 µg/mL
- MBC +[…] PB (A. baumannii A489 [15]; [23]): 2 µg/mL
- MBC (A. baumannii A489 [15]; without PB): 64 µg/mL
- MBC without PB (A. baumannii A489 [15]; [22]): 64 µg/mL
- MIC +[…] PB (A. baumannii NCTC 13301 [16]): 16 µg/mL
- MIC (A. baumannii NCTC 13301 [17]): 1 µg/mL
- MIC +0.06 μg/ml PB (A. baumannii A14 [18]; +0.06 μg/ml polymyxin B): 1 µg/mL
- MIC without PB (A. baumannii A14 [18]; without polymyxin B): 1 µg/mL
- MIC (A. baumannii A14 [19]; +0.06 μg/ml PB): 1 µg/mL
- MIC (A. baumannii A14 [19]; without PB): 1 µg/mL
- MBC +0.06 μg/ml PB (A. baumannii A14 [20]; +0.06 μg/ml polymyxin B): 1 µg/mL
- MBC without PB (A. baumannii A14 [20]; without polymyxin B): 2 µg/mL
